Data as given in US10238593B2, “System and method for preventing alopecia” (FOLLEA INTERNATIONAL, priority 2014, dated 2019).

Tests used:
scalp hair = experiment: Hair shedding: hairs removed with brush, 4-day protocol (Example 5); assay type: in vivo, human
Description: Patients: Fifteen female subjects, ages 18-40, were included in the study. Subjects were recruited based on their frequent use of traumatic hair care practices, such as, tight braids, head scarves, ponytails, extensions, hair rollers, hair weaves and heated styling appliances such as blow dryers, flat irons, heat setters and curling irons. Subjects with uncontrolled hypertension, that were pregnant or breastfeeding, had been diagnosed with pattern hair loss or with other hair loss in conjunction with female pattern hair loss were excluded from the study. […] Piloerection and blanching were visible after 30 minutes; the effect lasted for approximately 2-3 hours.
Hair Shedding: To measure hair loss during cosmetic procedures, a 4-day protocol was designed. On the first day patients were instructed to wash their hair and use styling products and procedures as they normally would. On the second day, patients were instructed not to wash their hair and to apply 0.5 mL of a placebo solution, containing a vehicle only, on the frontal area of the scalp in an 8×10 cm2 target area. Patients were instructed to wait 45 minutes, after which, they brushed their hair 20 times from the front of the scalp to the bottom of head using a new brush. After the procedure, the brushes were sealed in a plastic bag. […] After each clinical procedure, the investigator counted the hairs collected on each brush. […]

scalp hair follicles = experiment: Epilation force measured with trichotillometer (Example 5); assay type: in vivo, human; settings: average of 10 subjects
Description: To evaluate the effect of a topically applied α1-AR agonist on the force required to pluck hairs from the scalp, a hand-held spring dynamometer, or “trichotillometer” was used (8). The trichotillometer records the maximum force threshold, in grams, required to pluck a single hair from the scalp; the performance and statistical variance of the instrument have been reported previously (8-10). Force measurements were performed using the trichotillometer on 10 subjects. The frontal area of scalp was divided into two 8×10 cm2 areas. On the right side 0.5 mL of a placebo vehicle was applied. […] After 45 minutes, ten hairs were plucked from each of the target areas with the trichotillometer.

## CNC[C@H](O)c1cccc(O)c1 [phenylephrine]
Scalp hair; 15 female subjects, blinded study
  subjects with reduced shedding compared to placebo: 80%
Scalp hair; average of 15 subjects
  AVERAGE reduction in hair loss vs placebo: approximately 42%
Scalp hair follicles
  AVERAGE increase of epilation force threshold vs placebo: approximately 172%
